Patent publication US20060252798A1, “Metal ion chelators and therapeutic use thereof” (priority 2003, published 2006)
Read-outs that look alike come from different tables or passages of the source.

Columns and labels:
IMR-32 Neuroblastoma = assay: MTT cellular proliferation assay, IMR-32; type: cell-based; conditions: 72 h, 1 experiment
Description: (§1) The final concentration of the compounds was 0.39-50 μM. […] […] After this incubation, 0.01 mL of MTT was added to each well and the plates incubated for 2 h at 37° C. The cells were then solubilised by adding 0.1 mL of 10% SDS-50% isobutanol in 0.01 M HCl and the plates then read at 570 nm on a scanning multiwell spectrophotometer (Titertek Multiscan; Beckman Instruments Inc, California). MTT colour formation was directly proportional to the number of viable cells.
(§2) At the end of the incubation period, cell density was determined by the MTT assay (described above).

[1] = system: MCF-7 breast cancer cells; assay: MTT cellular proliferation assay, MCF-7; type: cell-based, human
M109 carcinoma cells [2] = assay: 59Fe uptake from 59Fe-Tf by M109 cells; type: cell-based, mouse
Description: (§3) The ability of the compound Dp44mT to inhibit the growth of M109 lung carcinoma cells in mice was assessed. Studies were performed using M109 carcinoma cells in culture to determine the effect of Dp44mT on mobilising ^59Fe from these cells (FIG. 11C) and inhibiting ^59Fe uptake from ^59Fe-Tf (FIG. 11D). As internal controls, cells were incubated with DFO and 311. The effect of compound concentration on increasing ^59Fe mobilisation from M109 cells was examined by labelling cells with ^59Fe-Tf (0.75 μM) for 3 h at 37° C. followed by washing and reincubation with the respective compounds (0.2-25 μM) for 3 h at 37° C. (FIG. 11C). […] In contrast, 311 increased cellular ^59Fe release from 8±1% (control medium) to […] at 5 μM (FIG. 11C). For Dp44mT ^59Fe release plateaued at 2 μM, resulting in the efflux of 48±2% of ^59Fe (FIG. 11C).
At 1 μM, 311 reduced ^59Fe uptake to 40±4% of the control. […] Dp44mT had similar activity to 311 up to a concentration of 5 μM, where it reduced ^59Fe uptake to 30±1% of the control (FIG. 11D).

MRC-5 fibroblasts = assay: MTT cellular proliferation assay, MRC-5 fibroblasts; type: cell-based, human; conditions: Table 3, normal cells, 72 h, MTT, read-out: IC50 MRC-5 fibroblasts
Description: as §1
The MRC-5 cell type is a normal human lung fibroblast cell strain that is mortal and senesces after a number of passages in vitro. The SK-N-MC neuroepithelioma cell type is immortal.
Dp2mT served as a negative control.

HEP G2 Hepatoma = assay: MTT cellular proliferation assay, HEP G2; type: cell-based; conditions: 72 h, 1 experiment
Description: as §1, §2

NCI H2452 mesothelioma = assay: MTT cellular proliferation assay, NCI H2452; type: cell-based; conditions: 72 h, 3 experiments
Description: as §1, §2

Ndrg1 = Ndrg1 expression in MCF-7 cells (Western blotting); type: cell-based, human; conditions: 25 μM, 24 h, MCF-7 cells (FIG. 16)
Description: FIG. 16. […] The expression of Ndrg1 and β-actin protein levels were assessed by Western blotting.
MCF-7 cells were incubated for 24 h with a range of metal ion chelators. […] Dp2mT was used as a negative control, […]

[3] = system: SK-N-MC neuroepithelioma cells; assay: MTT cellular proliferation assay, SK-N-MC; type: cell-based, human
SK-Mel-28 melanoma cells = assay: MTT cellular proliferation assay, SK-Mel-28; type: cell-based, human
H69AR lung cancer = assay: MTT cellular proliferation assay, H69AR; type: cell-based; conditions: 0-50 μM, 72 h, 1 experiment
Description: as §1, §2

DU 145 prostate cancer = assay: MTT cellular proliferation assay, DU 145; type: cell-based; conditions: 72 h, 2 experiments
Description: as §1, §2

[4] = system: SK-N-MC neuroepithelioma cells; assay: 59Fe mobilization from prelabelled SK-N-MC neuroepithelioma cells; type: cell-based, human; conditions: chelators 25 μM, 3 h at 37° C.; media alone released 5% (FIG. 11A)
Description: The effect of chelators on ^59Fe release from prelabelled cells was studied using standard procedures.^18 Cells were prelabelled with ^59Fe-transferrin (0.75 μM) for 3 h at 37° C. […] The overlying medium was then removed and placed into γ-counting tubes. The cells were removed from the petri dishes in 1 ml of BSS using a plastic spatula and transferred to a separate set of γ-counting tubes.
The ability of the compounds to mobilise ^59Fe from SK-N-MC neuroepithelioma cells was assessed after a 3 h labelling period with ^59Fe-Tf (0.75 μM) at 37° C. […]
DFO and 311 were used as internal standards.

M109 carcinoma cells [5] = assay: 59Fe mobilisation from prelabelled M109 cells; type: cell-based, mouse; conditions: 3 h, control medium 8±1%
Description: as §3

CN(C)C(=S)NN=C(c1ccccn1)c1ccccn1 [Dp44mT, di-2-pyridylketone 4,4-dimethyl-3-thiosemicarbazone]
IC50 (IMR-32 Neuroblastoma; 0-50 μM): 0.01 µM
IC50 ([1]; Table 3, 72 h, MTT, mean ± SD, read-out: IC50 MCF-7 breast cancer): 0.06 ± 0.01 µM
IC50 ([1]; values given in Example 8, read-out: IC50, anti-proliferative activity in MCF-7 cells): 0.1 µM
59Fe uptake (M109 carcinoma cells [2]; 5 μM): 30±1 % of the control
IC50 (MRC-5 fibroblasts): > 25 µM
IC50 (HEP G2 Hepatoma; 0-50 μM): 1.36 µM
IC50 (NCI H2452 mesothelioma; 0-50 μM): 0.01 µM
up-regulation of Ndrg1 (Ndrg1): markedly increased
IC50 ([3]; Table 3, 0-25 μM, 72 h, MTT, mean ± SD, read-out: IC50 SK-N-MC neuroepithelioma): 0.03 ± 0.01 µM
IC50 (SK-Mel-28 melanoma cells; Table 3, 72 h, mean ± SD): 0.06 ± 0.03 µM
IC50 (H69AR lung cancer): 0.05 µM
IC50 (DU 145 prostate cancer; 0-50 μM): 0.06 µM
efflux/mobilisation of total cellular 59Fe [4]: 47%
efflux of 59Fe (plateau) (M109 carcinoma cells [5]; 2 μM): 48±2%

CC(=O)N(O)CCCCCNC(=O)CCC(=O)N(O)CCCCCNC(=O)CCC(=O)N(O)CCCCCN [DFO, desferrioxamine]
IC50 (IMR-32 Neuroblastoma; Homo sapiens, IMR-32, 0-50 μM): 9.38 µM
IC50 ([1]; Homo sapiens, MCF7, 72 h, Table 3, 72 h, MTT, mean ± SD, read-out: IC50 MCF-7 breast cancer): 14 ± 9 µM
IC50 ([1]; Homo sapiens, MCF7, values given in Example 8 text, read-out: IC50, anti-proliferative activity in MCF-7 cells): 20 µM
inhibition of 59Fe uptake (M109 carcinoma cells [2]; 0.2-25 μM (FIG. 11D)): little effect
IC50 (MRC-5 fibroblasts; Homo sapiens, MRC5): > 25 µM
IC50 (HEP G2 Hepatoma; Homo sapiens, HepG2, 0-50 μM): 18.7 µM
IC50 (NCI H2452 mesothelioma; Homo sapiens, NCI-H2452, 0-50 μM): 32.3 µM
up-regulation of Ndrg1 (Ndrg1): no effect
IC50 ([3]; Homo sapiens, SK-N-MC, 72 h, Table 3, 0-25 μM, 72 h, MTT, mean ± SD, read-out: IC50 SK-N-MC neuroepithelioma): 5 µM
IC50 ([3]; Homo sapiens, SK-N-MC, 90 h, Table 2, MTT assay, 90 h incubation, Mean ± SD, 4 experiments, read-out: IC50 Values of Chelators): > 50 µM
IC50 (SK-Mel-28 melanoma cells; Homo sapiens, SK-MEL-28, 72 h, Table 3, mean ± SD): 15 ± 7 µM
IC50 (H69AR lung cancer; Homo sapiens, H69AR): > 50 µM
IC50 (DU 145 prostate cancer; Homo sapiens, DU-145, 0-50 μM): 15.8 µM
efflux/mobilisation of total cellular 59Fe [4]: 11%
59Fe released from cells (M109 carcinoma cells [5]; 25 μM): 12±1%
